Values quoted from earlier work in paper PMC7664160 (ACS infectious diseases, 2020).

Tested on: intracellular C. neoformans

| Structure (SMILES) | fungicidal activity against intraphagocytic C. neoformans |
| --- | --- |
| C[C@@H]1[C@H](O)[C@@H](C)/C=C/C=C/C=C/C=C/C=C/C=C/C=C/[C@H](O[C@@H]2O[C@H](C)[C@@H](O)[C@H](N)[C@@H]2O)C[C@@H]2O[C@](O)(C[C@@H](O)C[C@@H](O)[C@H](O)CC[C@@H](O)C[C@@H](O)CC(=O)O[C@H]1C)C[C@H](O)[C@H]2C(=O)O [amphotericin B] | neither fluconazole nor amphotericin B have fungicidal activity |
| OC(Cn1cncn1)(Cn1cncn1)c1ccc(F)cc1F [fluconazole] | neither fluconazole nor amphotericin B have fungicidal activity |
